According to patent publication US20130109714A1, “NEURODEGENERATIVE DISEASE THERAPEUTIC AGENT” (National University Corporation Hokkaido University, priority 2010, published 2013):

Columns and labels:
[1] = test system: cerebral stroke model rat; details: in vivo
[2] = test system: primary nerve cells of the rat ventral midbrain; experiment: H2O2-induced cell death in primary nerve cells, MTT assay; assay type: cell-based; details: 1 μM compound for 20 h, then 200 μM H2O2 for 3 h
Protocol: From germinal cells of a rat at 17-19 days pregnant, primary nerve cells of the rat ventral midbrain were prepared. To evaluate presence of dopamine-producing neurons in a cell culture, the cell culture was immunostained with anti-NeuN antibody and anti-TH antibody to identify each of whole neurons and dopamine-producing neurons, and cell nuclei were stained with DAPI.
Therefore, it was clarified that No. 23 provides a resistance against nerve cell death induced by oxidative stress.

[3] = test system: mouse injected with 6-OHDA to the unilateral (left) midbrain; experiment: 6-OHDA Parkinson's disease model, methamphetamine-induced rotational behavior; assay type: in vivo; details: administered together with methamphetamine, up to 7 days after administration
Protocol: To evaluate effects of a DJ-1 bound compound on Parkinson's disease in vivo, 6-OHDA was stereotactically injected to the unilateral (left) midbrain of a mouse. Then, the DJ-1 bound compound (No. 23) was administered together with methamphetamine. Here, administration of methamphetamine to an animal induces ipsilateral movement relative to the injection site. Accordingly, by the administration of methamphetamine to a mouse, a rotational behavior is observed.

SMILES: COc1cc(C(=O)Nc2ccc(-c3cn4cccc(C)c4n3)cc2)cc(OC)c1OC [No. 23]
- cell death in brain, TTC staining, infarct area and volume (FIGS. 4-7) [1]: significantly suppresses cell death
- cell death caused by hydrogen peroxide in primary nerve cells (FIG. 12) [2]: no cell death was observed
- rotational behavior, number of rotations (FIGS. 15 and 16) [3]: significantly suppressed
